Experimental data from the supplement of paper PMC10307832.

How the values were obtained:
Assay in all cases: relative viability (nuclei count vs DMSO), 5 days (fraction); higher = more cells survive
[1] = compound: CC1CC(=O)N(C2=CN=C(N=C2N1C3CCCC3)NC4=C(C=C(C=C4)C(=O)NC5CCN(CC5)C)OC)C [NPK76-II-72-1] + Cc1cc(Nc2cc(N3CCN(C)CC3)nc(Sc3ccc(NC(=O)C4CC4)cc3)n2)n[nH]1 [Tozasertib] (partner 0.1 µM)
In short: (§1)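 Lung cancer cell lines were seeded in 1536-well plates and dosed by pin tool the next day, with either a single drug or a fixed anchor-drug dose combined with five library-drug doses (not always all listed) spaced in √10 steps. Five days later, one step fixed the cells and stained their nuclei (final 0.05% Triton X-100, 1% formaldehyde, 1 ug/ml Hoechst), and nuclei were counted on 4× images. Relative viability is the nuclei count in treated wells divided by the count in vehicle wells, and each value is the median of duplicate plates.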

BI-2536 + Linsitinib = compound: CC[C@@H]1C(=O)N(C)c2cnc(Nc3ccc(C(=O)NC4CCN(C)CC4)cc3OC)nc2N1C1CCCC1 [BI-2536] + C[C@]1(O)C[C@@H](c2nc(-c3ccc4ccc(-c5ccccc5)nc4c3)c3c(N)nccn32)C1 [Linsitinib] (partner 1 µM)
In short: as §1

BI-2536 + Palbociclib = compound: CC[C@@H]1C(=O)N(C)c2cnc(Nc3ccc(C(=O)NC4CCN(C)CC4)cc3OC)nc2N1C1CCCC1 [BI-2536] + CC(=O)c1c(C)c2cnc(Nc3ccc(N4CCNCC4)cn3)nc2n(C2CCCC2)c1=O [Palbociclib] (partner 0.5 µM)
In short: as §1

BI-2536 + Navitoclax = compound: CC[C@@H]1C(=O)N(C)c2cnc(Nc3ccc(C(=O)NC4CCN(C)CC4)cc3OC)nc2N1C1CCCC1 [BI-2536] + CC1(C)CCC(c2ccc(Cl)cc2)=C(CN2CCN(c3ccc(C(=O)NS(=O)(=O)c4ccc(N[C@H](CCN5CCOCC5)CSc5ccccc5)c(S(=O)(=O)C(F)(F)F)c4)cc3)CC2)C1 [Navitoclax] (partner 0.5 µM)
In short: as §1

Cell Line | relative viability ([1]; first compound 0.01 µM) | relative viability ([1]; first compound 0.03162 µM) | relative viability ([1]; first compound 0.1 µM) | relative viability ([1]; first compound 0.3162 µM) | relative viability ([1]; first compound 1 µM) | relative viability (BI-2536 + Linsitinib; first compound 0.01 µM) | relative viability (BI-2536 + Linsitinib; first compound 0.03162 µM) | relative viability (BI-2536 + Linsitinib; first compound 0.1 µM) | relative viability (BI-2536 + Linsitinib; first compound 0.3162 µM) | relative viability (BI-2536 + Linsitinib; first compound 1 µM) | relative viability (BI-2536 + Palbociclib; first compound 0.01 µM) | relative viability (BI-2536 + Palbociclib; first compound 0.03162 µM) | relative viability (BI-2536 + Palbociclib; first compound 0.1 µM) | relative viability (BI-2536 + Palbociclib; first compound 0.3162 µM) | relative viability (BI-2536 + Palbociclib; first compound 1 µM) | relative viability (BI-2536 + Navitoclax; first compound 0.01 µM) | relative viability (BI-2536 + Navitoclax; first compound 0.03162 µM) | relative viability (BI-2536 + Navitoclax; first compound 0.1 µM) | relative viability (BI-2536 + Navitoclax; first compound 0.3162 µM) | relative viability (BI-2536 + Navitoclax; first compound 1 µM)
NCI-H2126 | 0.8 | 0.812 | 0.855 | 0.783 | 0.888 | 0.751 | 0.759 | 0.721 | 0.46 | 0.268 | 0.324 | 0.368 | 0.352 | 0.276 | 0.232 | 0.847 | 0.843 | 0.75 | 0.328 | 0.25
EMC-BAC-2 | 0.298 | 0.339 | 0.296 | 0.294 | 0.316 | 0.852 | 0.866 | 0.872 | 0.444 | 0.236 | 0.514 | 0.502 | 0.455 | 0.257 | 0.297 | 1.27 | 1.24 | 1.21 | 0.17 | 0.134
NCI-H1993 | 0.594 | 0.633 | 0.545 | 0.499 | 0.627 | 0.709 | 0.637 | 0.579 | 0.528 | 0.611 | 0.623 | 0.714 | 0.5 | 0.468 | 0.427 | 0.984 | 0.926 | 0.492 | 0.553 | 0.549
NCI-H520 | 0.36 | 0.437 | 0.429 | 0.423 | 0.487 | 0.984 | 0.852 | 0.792 | 0.153 | 0.171 | 0.225 | 0.216 | 0.182 | 0.178 | 0.178 | 1.02 | 1.03 | 0.366 | 0.222 | 0.2
NCI-H647 | 0.315 | 0.283 | 0.423 | 0.257 | 0.325 | 1.15 | 1.15 | 1.11 | 0.108 | 0.0822 | 0.265 | 0.473 | 0.266 | 0.0799 | 0.06 | 1.05 | 0.883 | 0.378 | 0.0407 | 0.0778
SK-LU-1 | 0.341 | 0.351 | 0.361 | 0.305 | 0.38 | 1.04 | 1.19 | 1.02 | 0.3 | 0.303 | 0.328 | 0.419 | 0.323 | 0.202 | 0.221 | 0.738 | 0.894 | 0.52 | 0.118 | 0.139
NCI-H2009 | 0.707 | 0.766 | 0.807 | 0.669 | 0.841 | 1.21 | 1.18 | 1.14 | 0.394 | 0.294 | 0.195 | 0.171 | 0.119 | 0.142 | 0.0906 | 1.14 | 1.05 | 0.7 | 0.121 | 0.0887
LOU-NH91 | 0.688 | 0.674 | 0.628 | 0.576 | 0.741 | 0.968 | 0.925 | 1.04 | 0.691 | 0.289 | 0.477 | 0.51 | 0.472 | 0.331 | 0.317 | 0.673 | 0.53 | 0.648 | 0.316 | 0.261
NCI-H2405 | 0.723 | 0.871 | 0.762 | 0.743 | 0.816 | 0.903 | 0.855 | 0.745 | 0.225 | 0.468 | 0.514 | 0.509 | 0.359 | 0.284 | 0.349 | 0.7 | 0.218 | 0.106 | 0.0606 | 0.116
LCLC-97TM1 | 0.177 | 0.31 | 0.215 | 0.188 | 0.228 | 0.157 | 0.239 | 0.168 | 0.143 | 0.113 | 0.225 | 0.203 | 0.144 | 0.107 | 0.0769 | 0.567 | 0.564 | 0.246 | 0.121 | 0.142
NCI-H727 | 0.641 | 0.616 | 0.545 | 0.539 | 0.649 | 0.416 | 0.268 | 0.281 | 0.282 | 0.211 | 0.708 | 0.613 | 0.701 | 0.615 | 0.437 | 0.356 | 0.552 | 0.255 | 0.138 | 0.176
H3255 | 0.623 | 0.729 | 0.734 | 0.434 | 0.673 | 0.906 | 1.03 | 0.903 | 0.227 | 0.226 | 0.341 | 0.299 | 0.314 | 0.248 | 0.259 | 0.292 | 0.359 | 0.196 | 0.113 | 0.119
SK-MES-1 | 0.938 | 0.999 | 0.876 | 0.937 | 0.922 | 1.08 | 1.01 | 0.979 | 1.02 | 0.176 | 0.345 | 0.301 | 0.187 | 0.222 | 0.208 | 1.21 | 1.37 | 1.14 | 0.126 | 0.139
NCI-H1437 | 0.393 | 0.469 | 0.391 | 0.361 | 0.422 | 1.03 | 0.901 | 0.941 | 0.123 | 0.0942 | 0.332 | 0.281 | 0.273 | 0.159 | 0.197 | 1.08 | 1.08 | 0.714 | 0.145 | 0.142
LU99A | 0.318 | 0.309 | 0.309 | 0.271 | 0.283 | 0.593 | 0.534 | 0.472 | 0.172 | 0.194 | 0.37 | 0.445 | 0.318 | 0.152 | 0.147 | 0.811 | 0.86 | 0.323 | 0.108 | 0.132
HCC-827 | 0.399 | 0.416 | 0.417 | 0.409 | 0.476 | 1.08 | 1.01 | 0.947 | 0.796 | 0.268 | 0.467 | 0.435 | 0.467 | 0.267 | 0.186 | 1.06 | 1 | 0.99 | 0.23 | 0.186
LK-2 | 0.159 | 0.195 | 0.183 | 0.187 | 0.213 | 0.528 | 0.504 | 0.506 | 0.12 | 0.144 | 0.586 | 0.525 | 0.464 | 0.15 | 0.106 | 0.798 | 0.553 | 0.387 | 0.118 | 0.172
HCC-366 | 0.204 | 0.156 | 0.111 | 0.118 | 0.169 | 0.648 | 0.739 | 0.535 | 0.0173 | 0.0162 | 0.364 | 0.389 | 0.225 | 0.0306 | 0.0265 | 1.1 | 1.1 | 0.809 | 0.0109 | 0.0154
BEN | 0.462 | 0.46 | 0.551 | 0.496 | 0.552 | 0.876 | 0.874 | 0.83 | 0.658 | 0.222 | 0.481 | 0.506 | 0.455 | 0.401 | 0.366 | 0.0623 | 0.0739 | 0.0643 | 0.0627 | 0.0546
NCI-H23 | 0.367 | 0.386 | 0.35 | 0.379 | 0.378 | 0.536 | 0.542 | 0.644 | 0.191 | 0.138 | 0.465 | 0.528 | 0.304 | 0.146 | 0.111 | 0.894 | 0.632 | 0.567 | 0.192 | 0.127
NCI-H1395 | 0.726 | 0.822 | 0.72 | 0.767 | 0.759 | 0.928 | 0.785 | 0.633 | 0.544 | 0.474 | 0.574 | 0.516 | 0.339 | 0.347 | 0.375 | 1.01 | 0.635 | 0.732 | 0.42 | 0.467
201T | 0.884 | 0.948 | 0.984 | 0.939 | 0.976 | 1.07 | 0.866 | 1.07 | 1 | 0.345 | 0.367 | 0.344 | 0.347 | 0.314 | 0.287 | 1.18 | 1.16 | 1.21 | 0.939 | 0.33
NCI-H460 | 0.524 | 0.529 | 0.673 | 0.463 | 0.597 | 0.844 | 0.755 | 0.28 | 0.0093 | 0.0128 | 0.264 | 0.15 | 0.14 | 0.0134 | 0.0152 | 1.19 | 1.05 | 0.0795 | 0.0095 | 0.0103
HCC-15 | 0.394 | 0.384 | 0.342 | 0.41 | 0.462 | 0.921 | 0.965 | 0.815 | 0.28 | 0.143 | 0.704 | 0.66 | 0.547 | 0.17 | 0.144 | 0.709 | 0.693 | 0.497 | 0.202 | 0.101
NCI-H441 | 0.825 | 0.659 | 0.635 | 0.619 | 0.721 | 0.521 | 0.575 | 0.321 | 0.126 | 0.133 | 0.201 | 0.203 | 0.183 | 0.132 | 0.122 | 0.705 | 0.449 | 0.152 | 0.152 | 0.178
EPLC-272H | 0.278 | – | 0.281 | 0.229 | 0.229 | 1.12 | 1.15 | – | 0.143 | 0.0967 | 0.293 | 0.315 | 0.234 | 0.168 | 0.152 | 1.13 | 0.999 | – | 0.0617 | 0.0715
